This test concerns the target T1, Vtc1/Vtc3/Vtc4 complex (VTC complex) (Saccharomyces cerevisiae, UniProt P47075+Q02725, Q02725:K126A/Q02725:K129A/Q02725:K133A).
T1 construct: full-length subunits co-expressed in Expi293F; Vtc1 C-terminal HA, Vtc3 N-terminal 3xFlag, Vtc4 C-terminal 2xStrep; detergent-purified; 3:1:1 pentamer; with Vacuolar transporter chaperone complex subunit 1
T1 sequence (P47075 1-721): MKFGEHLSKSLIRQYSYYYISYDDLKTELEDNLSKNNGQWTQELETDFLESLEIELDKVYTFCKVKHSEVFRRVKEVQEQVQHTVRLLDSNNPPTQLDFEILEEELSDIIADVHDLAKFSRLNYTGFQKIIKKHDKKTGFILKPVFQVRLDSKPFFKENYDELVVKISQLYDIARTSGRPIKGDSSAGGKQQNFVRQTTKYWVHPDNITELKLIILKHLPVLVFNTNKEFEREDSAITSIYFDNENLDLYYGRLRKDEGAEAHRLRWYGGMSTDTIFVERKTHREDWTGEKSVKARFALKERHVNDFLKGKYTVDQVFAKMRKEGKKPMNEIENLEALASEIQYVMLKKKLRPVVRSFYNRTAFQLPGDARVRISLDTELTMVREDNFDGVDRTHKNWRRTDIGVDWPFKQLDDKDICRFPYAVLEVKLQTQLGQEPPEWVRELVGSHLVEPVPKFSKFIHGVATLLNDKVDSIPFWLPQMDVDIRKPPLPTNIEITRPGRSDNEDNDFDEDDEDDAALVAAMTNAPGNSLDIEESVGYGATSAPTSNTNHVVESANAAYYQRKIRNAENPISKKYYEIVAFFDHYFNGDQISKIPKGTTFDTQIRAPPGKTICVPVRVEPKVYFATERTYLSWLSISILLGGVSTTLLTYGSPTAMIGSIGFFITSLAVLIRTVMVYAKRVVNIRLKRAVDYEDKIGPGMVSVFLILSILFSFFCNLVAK
T1 sequence (Q02725 1-835 K126A/K129A/K133A): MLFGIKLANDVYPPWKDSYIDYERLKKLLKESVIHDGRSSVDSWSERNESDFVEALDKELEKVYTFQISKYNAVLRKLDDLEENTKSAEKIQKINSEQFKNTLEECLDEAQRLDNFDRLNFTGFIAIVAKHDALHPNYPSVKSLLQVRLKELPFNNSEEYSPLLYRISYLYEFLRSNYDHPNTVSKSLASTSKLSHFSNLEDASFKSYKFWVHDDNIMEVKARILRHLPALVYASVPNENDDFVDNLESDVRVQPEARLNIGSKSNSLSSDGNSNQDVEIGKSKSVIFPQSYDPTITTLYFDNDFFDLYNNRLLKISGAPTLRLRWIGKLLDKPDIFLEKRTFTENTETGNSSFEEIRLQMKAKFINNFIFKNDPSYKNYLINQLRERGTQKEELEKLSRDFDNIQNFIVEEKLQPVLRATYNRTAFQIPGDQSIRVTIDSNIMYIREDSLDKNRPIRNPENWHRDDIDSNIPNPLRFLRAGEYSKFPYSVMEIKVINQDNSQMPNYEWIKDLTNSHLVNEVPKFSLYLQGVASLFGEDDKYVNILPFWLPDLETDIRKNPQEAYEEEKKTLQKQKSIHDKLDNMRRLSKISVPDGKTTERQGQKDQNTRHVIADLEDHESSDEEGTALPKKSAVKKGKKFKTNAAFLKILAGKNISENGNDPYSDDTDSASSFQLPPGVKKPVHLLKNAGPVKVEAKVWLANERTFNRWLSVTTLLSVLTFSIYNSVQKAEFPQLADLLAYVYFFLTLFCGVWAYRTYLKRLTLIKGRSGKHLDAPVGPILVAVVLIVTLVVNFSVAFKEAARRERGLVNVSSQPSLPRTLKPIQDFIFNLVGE
T1 sequence (P40046 2-129 partner): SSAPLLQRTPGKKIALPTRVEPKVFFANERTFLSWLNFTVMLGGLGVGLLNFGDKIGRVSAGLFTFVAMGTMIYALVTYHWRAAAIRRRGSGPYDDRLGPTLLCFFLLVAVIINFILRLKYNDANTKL
The experiment in a line: polyP synthesis, TBE-PAGE. In kind it is biochemical. Particulars: activator; 15 mM ATP, 10 mM MgCl2, 1 mM MnCl2, 0.5 mM pyrophosphate, 27 °C, 4 h; SPX KSC mutant.

For `O=P(O)(O)O[C@H]1[C@H](OP(=O)(O)O)[C@@H](OP(=O)(O)O)[C@H](OP(=O)(O)O)[C@@H](OP(=O)(O)O)[C@H]1OP(=O)(O)O` [InsP6], the “polyP synthesis, TBE-PAGE” value is “residues had little effect on polyP synthesis”.

The record behind these values is publication PMC9911596 (Nature Communications, 2023).
